The nature of data set [1]: Plasma protein binding (PPB), equilibrium dialysis, human plasma. The class given is in vitro ADME. To be noted: 2 μM, unbound rate. As for the experimental part:
(§1) The protein binding rates of the compound in the plasma of CD-1 mouse, Sprague-Dawley rat, Beagle dog, cynomolgus monkey and human were determined by equilibrium dialysis method.
(§2) The plasmas of the above-mentioned five species were formulated to plasma samples with a compound concentration of 2 μM. The plasma samples were placed in a 96-well rapid equilibrium dialysis device, and dialyzed against phosphate buffered saline at 37±1° C. for 4 h. In this assay, warfarin was used as a control compound. The concentrations of analytes in plasma and dialysis buffer were determined by LC-MS/MS mothed.
For orientation: Equilibrium dialysis compares concentrations on both sides of a semipermeable membrane.

Data set [2] in a line: Pharmacokinetic study of oral and intravenously injected compounds in CD-1 mouse. The class given is in vivo. As for the experimental part:
To assay the pharmacokinetics of oral and intravenously injected compounds in CD-1 mouse. The assay compound was mixed with 5% DMSO+95% (10% HP-β-CD) aqueous solution. The mixture was vortexed and sonicated to prepare a clear solution of 0.5 mg/mL (intravenous) or a clear solution of 3 mg/mL (oral). The clear solution was filtered by a microporous membrane for use. […] Whole blood was collected for a certain period of time, and prepared to obtain plasma. Drug concentration was analyzed by LC-MS/MS method, and pharmacokinetic parameters were calculated by Phoenix WinNonlin software (Pharsight, USA).

Data set [3] in a line: Plasma protein binding (PPB), equilibrium dialysis, cynomolgus monkey plasma. Type of data set: in vitro ADME. To be noted: 2 μM, unbound rate. The protocol:
as §1, §2

Data set [4] deals with xenograft tumor of human colon cancer GP2D. The data set can be described thus: Pharmacodynamics in vivo: Balb/c nude mouse subcutaneous xenograft of human colon cancer GP2D cells. The settings on record: PO, BID*20, 20th day. As for the experimental part: A Balb/c nude mouse model of subcutaneously xenograft tumor of human colon cancer GP2D cell was established. 0.2 mL (2×10^6) of GP2D cells (Matrigel was added, and volume ratio was 1:1) were inoculated subcutaneously on the right back of each mouse. When the average tumor volume reached 149 mm^3, the administration was started by group, with 6 mice in each group. On the day of the assay, the animals were administered the corresponding drugs according to the corresponding groups. The first group G1 was set as a negative control group, which was given 5% DMSO+95%(10% HP-β-CD) alone by gavage administration. The second group G2 to the fourth group G4 were given compound 1 hydrochloride, and the dosage and protocol of administration were shown in Table 13.
During the assay, the body weight of animals and the tumor size were measured twice a week. Meanwhile clinical symptoms of animals were observed and recorded every day. Each administration was referenced to the most recent body weight of animals.
The length (a) and width (b) of a tumor were measured with a digital vernier caliper. The calculation formula of tumor volume (Tumor volume, TV) was: TV=a×b^2/2.
For orientation: A xenograft is tissue or cells of one species grown in another, often human tumour cells in immunodeficient mice.

Data set [5] in a line: Plasma protein binding (PPB), equilibrium dialysis, Sprague-Dawley rat plasma. To be noted: 2 μM, unbound rate. The class given is in vitro ADME. As for the experimental part:
as §1, §2

The nature of data set [6]: Plasma protein binding (PPB), equilibrium dialysis, Beagle dog plasma. The class given is in vitro ADME. To be noted: 2 μM, unbound rate. The protocol:
as §1, §2

The test system of data set [7] is p-ERK in AGS cells. Nature of the data set: Assay of p-ERK inhibition in AGS cells (HTRF). The settings on record: Homo sapiens, 3 hours incubation. The class given is cell-based. The protocol: • 1) AGS cells were inoculated in a transparent 96-well cell culture plate, and each well contained […] of cell suspension and 10000 cells. The cell plate was inoculated in a carbon dioxide incubator at 37° C. overnight; • 2) After completion of the incubation, the cell supernatant was discarded. 80 μL of medium containing 0.02% serum was added to each well. The cell plate was incubated in a carbon dioxide incubator at 37° C. overnight; • 3) 2 μL of the compound was weighed and added to 78 μL of the cell medium. After the mixture was mixed thoroughly, 20 μL of the solution of compound was weighed and added to the corresponding well of the cell plate. The cell plate was placed back to the carbon dioxide incubator and incubated for another 3 hours; • 4) After completion of the incubation, the cell supernatant was discarded. 50 μL of 1× cell lysate was added to each well. […] The mixture was incubated at room temperature for at least 4 hours; • 7) After completion of the incubation, HTRF was read with multi-label analyzer: excitation: 320 nm, emission: 615 nm, 665 nm; • 8). IC50 of the compound to be assayed was calculated.
(In TR-FRET formats the signal depends on donor and acceptor labels being close together.)

Setting [8] is: male, CD-1, plasma, intravenous (IV), about 2 mg/kg.
[9] abbreviates: male, CD-1, plasma, oral (PO), about 30 mg/kg.

pIC50: −log10 of the molar value. Where a name gives a salt, the structure may show the parent alone.

The term AUC(0-t) denotes exposure summed from dosing to a finite time, without extrapolation to infinity. For orientation: half-life means the time needed for the level to fall by half in the phase considered. As usually defined, the AUC(0-inf) is total exposure, with the tail of the curve extrapolated. One may read the Cmax as the peak of the concentration-time curve. The pIC50 is the IC50 on a negative log10 scale, so that one unit is a factor of ten. Regarding `Cc1cc(N)c(F)c(C2Cc3nc(OC[C@@]45CCCN4C[C@H](F)C5)nc(N4CC5CCC(C4)N5)c3CO2)c1C(F)(F)F` (stereo partly shown) [Compound 1 hydrochloride], the “Unbound PPB H” value in data set [1] came out at 7.0%. In data set [2] (setting [8]), the area under the curve AUC(0-t) came to 353 nM·h, the C0 came to 1.4 µM, the Vd stood at 148 L/kg and the clearance is 6.36 L/h/kg. The compound also had a half-life in data set [2] (setting [8]) of 23.1 h. In data set [2] (setting [9]), the area under the curve AUC(0-inf) amounted to 1350 nM·h and the highest level (Cmax) was 0.228 µM. In data set [2] (oral (PO), about 30 mg/kg, oral bioavailability), the F came to 25.5%. Further, the “Unbound PPB C” value in data set [3] is 6.3%. Also, the “Tumor volume inhibition rate TGI (%)” value in data set [4] (G2, 3 mg/kg) was found to be 19.4%. In data set [4] (G3, 10 mg/kg), the “Tumor volume inhibition rate TGI (%)” value was 53.9%. The “Tumor volume inhibition rate TGI (%)” value in data set [4] (G4, 30 mg/kg) is given as 83.7%. Also, in data set [5], the “Unbound PPB R” value is reported as 3.0%. For the same compound, in data set [6], the “Unbound PPB D” value was 5.2%. The same compound had a negative-log IC50 (pIC50) in data set [7] of 7.35.

The values above are taken from US20240327433A1, “PYRIMIDOPYRAN COMPOUND” (Medshine Discovery Inc., priority 2021, published 2024).
